The results in this text go back to article PMC7913927, “Leishmanicidal Activity of Betulin Derivatives in Leishmania amazonensis; Effect on Plasma and Mitochondrial Membrane Potential, and Macrophage Nitric Oxide and Superoxide Production” (Microorganisms, 2021).

The experiment deals with L. (L.) amazonensis LTB0016 promastigotes. The experiment can be described thus: Promastigote in vitro susceptibility (Alamar Blue/resazurin), reference strain. In kind it is cell-based, Leishmania amazonensis. The note with it: LTB0016, 50 µM. As for the experimental part:
The fluorometric method of Alamar Blue® (resazurin) was used. Promastigotes grown in biphasic agar-blood medium, at the exponential phase of growth, were seeded in flat-bottom 96-well culture plates, at a cell density of 1 × 10^6 parasites mL^−1 (200,000 parasites/well), in 180 µL of RPMIc without phenol red. Subsequently, either a sole concentration (50 µM), or increasing concentrations of compounds or drugs were applied, according to each treatment group, in volumes of 2 µL. Plates were kept at 26 °C, in a humid chamber, for 72 h. […] Live parasites are metabolically active and capable of reducing non-fluorescent resazurin (blue) to fluorescent resorufin (red). Fluorescence intensity is directly proportional to the number of viable cells. […] At least two independent experiments were performed in duplicate. The effect of trivalent antimonial [SbIII, potassium antimonyl tartrate trihydrate, Sigma-Aldrich, (St. Louis, MO, USA)] was included as positive control of the assay.

On to `C=C(C)C1CCC2(C=NO)CCC3(C)C(CCC4C5(C)CCC(=NO)C(C)(C)C5CCC43C)C12` (stereo not shown) [Compound 18], for which the growth inhibition entry is listed as “at least 75%”.
